Key:
MCT4 = MCT4 (Homo sapiens (Human), UniProt O15427); test: Assay 3: MCT4-mediated lactate transport in MDA-MB-231 breast cancer cells; type: cell-based; conditions: MDA-MB-231 cells; lactate transport
In short: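 MDA-MB-231 cells loaded with BCECF-AM, 5 min at 37° C, washed and resuspended in Tyrode's Solution, pH 7.4. MCT4 lactate/proton symport followed as the intracellular pH change reported by BCECF fluorescence.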

MCT1 = MCT1 (Homo sapiens (Human), UniProt P53985); test: Assay 4: MCT1-mediated lactate transport in BT20 breast cancer cells; type: cell-based; conditions: Table 27
Chain of MCT1 (P53985 whole entry): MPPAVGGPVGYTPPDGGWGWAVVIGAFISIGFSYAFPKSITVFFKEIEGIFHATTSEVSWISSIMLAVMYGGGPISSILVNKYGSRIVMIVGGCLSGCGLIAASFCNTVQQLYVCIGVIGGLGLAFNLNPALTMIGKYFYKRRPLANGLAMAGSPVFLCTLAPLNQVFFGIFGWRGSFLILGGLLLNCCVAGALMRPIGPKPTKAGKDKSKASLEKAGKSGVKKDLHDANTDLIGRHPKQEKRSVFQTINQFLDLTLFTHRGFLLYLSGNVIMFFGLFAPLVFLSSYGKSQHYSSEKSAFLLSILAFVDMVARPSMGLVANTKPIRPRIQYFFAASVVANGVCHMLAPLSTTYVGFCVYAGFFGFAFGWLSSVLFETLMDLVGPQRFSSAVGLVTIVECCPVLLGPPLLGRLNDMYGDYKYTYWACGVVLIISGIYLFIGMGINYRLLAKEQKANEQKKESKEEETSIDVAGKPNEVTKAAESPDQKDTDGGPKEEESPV
Chain of MCT1 (P35613 140-385 partner): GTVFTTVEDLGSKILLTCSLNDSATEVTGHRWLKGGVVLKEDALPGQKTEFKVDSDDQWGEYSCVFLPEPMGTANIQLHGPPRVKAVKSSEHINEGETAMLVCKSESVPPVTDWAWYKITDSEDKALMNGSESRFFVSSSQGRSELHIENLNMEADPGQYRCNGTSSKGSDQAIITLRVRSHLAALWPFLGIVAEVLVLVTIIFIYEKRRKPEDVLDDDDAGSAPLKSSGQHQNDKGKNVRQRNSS
In short: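 BT20 cells loaded with BCECF-AM (30 mM DMSO stock) for 5 min at 37° C, washed and resuspended in Tyrode's Solution pH 7.4. Lactate uptake tracked via BCECF intracellular pH signal after adding 10 mM L-lactate.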

[1] = Metabolic stability in human liver microsomes (in vitro t1/2); type: in vitro ADME; conditions: for half-life at 2 µM: human liver microsomes 0.5 mg/mL, 2 μM compound, read-out: Human microsome t1/2, min; for Human microsome % 60 min: human liver microsomes
Description: (§1) The following are assays that may be used to evaluate the metabolic stability of compounds of Formula (I) in human, rat, or mouse microsomes. The assays follow a common procedure recited below. 1. […] Two separated experiments were performed as follows. a) With NADPH: 10 μL of 20 mg/mL liver microsomes and 40 μL of 10 mM NADPH were added to the incubations. […] The final concentration of microsomes was 0.5 mg/mL. 3. The reaction was started with the addition of 4 μL of 200 μM control compound or test compound solutions. Verapamil was used as positive control in this study. The final concentration of test compound or control compound was 2 μM. 4. Aliquots of 50 μL were taken from the reaction solution at 0, 15, 30, 45 and 60 min. […] Samples were centrifuged at 3,220 g for 40 minutes. A 90 μL aliquot of the supernatant was mixed with 90 μL of ultra-pure H2O and then used for LC-MS/MS analysis. 5. Data analysis. All calculations were carried out using Microsoft Excel. Peak areas were determined from extracted ion chromatograms. The slope value, k, was determined by linear regression of the natural logarithm of the remaining percentage of the parent drug vs. incubation time curve. The in vitro half-life (in vitro t1/2) was determined from the slope value: in vitro t1/2=−(0.693)/k.

[2] = Metabolic stability in rat liver microsomes (in vitro t1/2); type: in vitro ADME; conditions: for half-life at 2 µM: read-out: Rat microsome t1/2, min; for Rat microsome % 60 min: rat liver microsomes
Description: as §1

[3] = Metabolic stability in mouse liver microsomes (in vitro t1/2); type: in vitro ADME; conditions: for half-life at 2 µM: read-out: Mouse microsome t1/2, min; for Mouse microsome % 60 min: mouse liver microsomes
Description: as §1

[4] = Pharmacokinetic assay in rat (IV 3 mg/kg, PO 10 mg/kg); type: in vivo; conditions: Male Sprague-Dawley rat; for Rat F: oral bioavailability; for Rat F / half-life: PO 10 mg/kg; for half-life / Vd: plasma; for half-life: read-out: Rat t1/2 (converted); for Vd: volume of distribution, read-out: Rat Vss
Source text: (§2) The following are assays that may be used to evaluate the pharmacokinetic properties of Formula (I) in mouse or rat. The assays follow a common procedure recited below.
(§3) 1. […] For PO (oral gavage), DMSO/PEG400 (10:90). Formulations freshly prepared on the day of dosing or prior to dosing. Storage at room temperature.
(§4) 2. Test Species: For Mouse: Male CD1 strain, approximately 6-8 weeks in age, approximately 20-30 g. For Rat: Male Sprague-Dawley strain, approximately 6-8 weeks in age, approximately 200-300 g.
(§5) 3. Dose Level: For IV, 3 mg/kg. For PO, 10 mg/kg.
(§6) 4. Number of animals: 3 per assay.
(§7) 5. PK time points: For IV (plasma): 5 min, 15 min, 1, 2, 4, 6, 8, 24 h post dose. For PO (plasma): 15 min, 30 min, 1, 2, 4, 6, 8, 24 h post dose.
(§8) 6. Blood Sample Collection and Processing. Blood was collected (˜0.2 mL per time point) from jugular vein. Blood of each sample was transferred into plastic micro centrifuge tubes containing anticoagulant of EDTA-K2. Blood samples were centrifuged at 2,000 g for 5 minutes at 4° C. to obtain plasma.
(§9) 7. Samples Analysis: Plasma samples were analyzed using LC/MS/MS method, and pharmacokinetic parameters (half-life: t1/2; oral bioavailability: F; volume of distribution: Vss).

[5] = Pharmacokinetic assay in mouse (IV 3 mg/kg, PO 10 mg/kg); type: in vivo; conditions: Male CD1 mouse; for Mouse F: oral bioavailability; for Mouse F / half-life: PO 10 mg/kg; for half-life / Vd: plasma; for half-life: read-out: Mouse t1/2 (converted); for Vd: volume of distribution, read-out: Mouse Vss
Source text: as §2, §3, §4, §5, §6, §7, §8, §9

[6] = rat liver microsomes 0.5 mg/mL, 2 μM compound
[7] = mouse liver microsomes 0.5 mg/mL, 2 μM compound

Chain of MCT4 (O15427 whole entry, looked up): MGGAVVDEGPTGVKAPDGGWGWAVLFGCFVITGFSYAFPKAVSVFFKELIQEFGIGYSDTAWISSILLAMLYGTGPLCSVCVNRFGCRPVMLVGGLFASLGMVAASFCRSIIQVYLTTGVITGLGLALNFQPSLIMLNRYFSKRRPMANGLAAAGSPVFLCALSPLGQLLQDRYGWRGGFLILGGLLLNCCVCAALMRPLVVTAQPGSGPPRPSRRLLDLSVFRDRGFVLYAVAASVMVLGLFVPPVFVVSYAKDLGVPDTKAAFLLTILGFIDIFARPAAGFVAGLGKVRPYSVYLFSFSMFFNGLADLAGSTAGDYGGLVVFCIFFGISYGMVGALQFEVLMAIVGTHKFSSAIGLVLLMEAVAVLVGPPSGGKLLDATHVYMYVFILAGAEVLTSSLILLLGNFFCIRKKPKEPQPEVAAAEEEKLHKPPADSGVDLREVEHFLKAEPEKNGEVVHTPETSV
Chain of MCT4 (P35613 whole entry partner, looked up): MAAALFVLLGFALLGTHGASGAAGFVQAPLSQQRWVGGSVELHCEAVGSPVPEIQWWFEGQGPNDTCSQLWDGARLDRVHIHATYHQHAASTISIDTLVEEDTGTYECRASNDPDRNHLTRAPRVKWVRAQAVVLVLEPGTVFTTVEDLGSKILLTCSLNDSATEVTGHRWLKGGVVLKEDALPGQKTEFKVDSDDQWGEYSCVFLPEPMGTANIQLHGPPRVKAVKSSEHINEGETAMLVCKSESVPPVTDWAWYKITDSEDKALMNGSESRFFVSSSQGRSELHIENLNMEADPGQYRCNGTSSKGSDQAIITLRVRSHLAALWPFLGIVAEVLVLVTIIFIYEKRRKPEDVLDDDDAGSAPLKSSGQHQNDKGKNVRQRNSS

| Structure (SMILES) | IC50 (MCT4) | IC50 (MCT1) | half-life at 2 µM [1] | Human microsome % 60 min [1] | half-life at 2 µM [2, 6] | Rat microsome % 60 min [2] | half-life at 2 µM [3, 7] | Mouse microsome % 60 min [3] | Rat F [4] | half-life [4] | Vd [4] | Mouse F [5] | half-life [5] | Vd [5] | Rat microsome t1/2, min [2, 6] | Mouse microsome t1/2, min [3, 7] |
| --- | --- | --- | --- | --- | --- | --- | --- | --- | --- | --- | --- | --- | --- | --- | --- | --- |
| CCCn1ncc2ccc(-c3cc(COC(C)(C)C(=O)O)nn3-c3ccccc3N3CCC3)cc21 [Example 246, 2-([1-[2-(Azetidin-1-yl)phenyl]-5-(1-propyl-1H-indazol-6-yl)-1H-pyrazol-3-yl]methoxy)-2-methylpropanoic acid] | 3.1 nM | 32000 nM | 1.58 h | 65% | 1.82 h | 69% | 2.8 h | 81% | 52% | 4.7 h | 1.7 L/kg |  |  |  |  |  |
| CCn1ncc2ccc(-c3cc(CO[C@](C)(CC)C(=O)O)nn3-c3ccccc3N3CCC3)cc21 [Example 269, (2R)-2-([1-[2-(Azetidin-1-yl)phenyl]-5-(1-ethyl-1H-indazol-6-yl)-1H-pyrazol-3-yl]methoxy)-2-methylbutanoic acid] | 1 nM | 58000 nM |  |  |  |  |  |  |  |  |  | 100% | 3.3 h | 1.3 L/kg |  |  |
| CCn1ncc2ccc(-c3cc(CO[C@@](C)(CC)C(=O)O)nn3Cc3ccccc3Cl)cc21 [Example 257, (S)-2-((1-(2-chlorobenzyl)-5-(1-ethyl-1H-indazol-6-yl)-1H-pyrazol-3-yl)methoxy)-2-methylbutanoic acid] | 0.35 nM | 19000 nM | 21.6 h | 96% |  | 103% |  | 102% | 76% | 2.7 h | 1.6 L/kg | 76% | 3.6 h | 2.8 L/kg | ∞ | ∞ |
| CCn1ncc2ccc(-c3cc(COC(C)(C)C(=O)O)nn3-c3ccccc3N3CCC3)cc21 [Example 228, 2-([1-(2-(Azetidin-1-yl)phenyl]-5-(1-ethyl-1H-indazol-6-yl)-1H-pyrazol-3-yl]-methoxy)-2-methylpropanoic acid] | 5.9 nM | 31000 nM | 2.17 h | 71% | 6.58 h | 91% | 12.8 h | 96% | 94% | 3.1 h | 1.3 L/kg | 100% | 4.4 h | 2 L/kg |  |  |
| CC(C)COc1ncc(-c2cc(COC(C)(C)C(=O)O)nn2Cc2ccccc2Cl)s1 [Example 132, 2-([1-[(2-Chlorophenyl)methyl]-5-[2-(2-methylpropoxy)-1,3-thiazol-5-yl]-1H-pyrazol-3-yl]methoxy)-2-methylpropanoic acid] | 8.6 nM | 8200 nM | 1.93 h | 70% | 1.87 h | 70% | 1.63 h | 64% |  |  |  |  |  |  |  |  |
| Cn1ncc2cccc(-n3nc(COC(C)(C)C(=O)O)cc3-c3cccc(OCC(C)(C)C)c3)c21 [Example 167, 2-([5-[3-(2,2-dimethylpropoxy)phenyl]-1-(1-methyl-1H-indazol-7-yl)-1H-pyrazol-3-yl]-methoxy)-2-methylpropanoic acid] | 0.59 nM | 36000 nM | 4.17 h | 84% | 1.23 h | 72% | 7.17 h | 97% | 72% | 2.2 h | 1.2 L/kg | 24% | 1.7 h | 2.6 L/kg |  |  |
| Cn1ncc2ccc(-c3cc(COC(C)(C)C(=O)O)nn3Cc3ccccc3Cl)cc21 [Example 226, 2-([1-[(2-Chlorophenyl)methyl]-5-(1-methyl-1H-indazol-6-yl)-1H-pyrazol-3-yl]-methoxy)-2-methylpropanoic acid] | 15 nM | 54000 nM | 7.8 h | 95% | 7.58 h | 88% | 11.4 h | 95% |  |  |  |  |  |  |  |  |
| CCOc1ccccc1Cn1nc(COC(C)(C)C(=O)O)cc1-c1cc(Cl)cc(OC)c1 [Example 196, 2-([5-(3-Chloro-5-methoxyphenyl)-1-[(2-ethoxyphenyl)methyl]1H-pyrazol-3-yl]-methoxy)-2-methylpropanoic acid] | 1.9 nM | 38000 nM | 1.47 h | 62% | 0.633 h | 32% | 0.617 h | 33% |  |  |  |  |  |  |  |  |
| COc1cc(OC)cc(-c2cc(COC(C)(C)C(=O)O)nn2-c2ccccc2N2CCC2)c1 [Example 251, 2-((1-(2-(Azetidin-1-yl)phenyl)-5-(3,5-dimethoxyphenyl)-1H-pyrazol-3-yl)methoxy)-2-methylpropanoic acid] | 5.6 nM | 98000 nM | 3.02 h | 77% | 3.02 h | 83% | 1.55 h | 63% | 98% | 3 h | 0.38 L/kg |  |  |  |  |  |
| CC(C)(C)COc1cccc(-c2cc(COC(C)(C)C(=O)O)nn2-c2ccccc2N2CCC2)c1 [Example 155, 2-([1-[2-(Azetidin-1-yl)phenyl]-5-[3-(2,2-di-methylpropoxy)phenyl]-1H-pyrazol-3-yl]-methoxy)-2-methylpropanoic acid] | 0.32 nM | > 33000 nM | 0.867 h | 62% | 1.22 h | 70% | 0.633 h | 37% |  |  |  |  |  |  |  |  |
| CC(C)(OCc1cc(-c2cccc(OCC3CCC3)c2)n(-c2ccccc2Cl)n1)C(=O)O [Example 178, 2-([1-(2-Chlorophenyl)-5-[3-(Cyclobutyl-methoxy)phenyl]-1H-pyrazol-3-yl]-methoxy)-2-methylpropanoic acid] | 2.5 nM | 27000 nM | 1.92 h | 66% | 2.42 h | 72% | 2.08 h | 70% |  |  |  |  |  |  |  |  |
| CC(C)(OCc1cc(-c2cccc(OC3CC3)c2)n(-c2ccc(F)cc2N2CCC2)n1)C(=O)O [Example 183, 2-([1-[2-(Azetidin-1-yl)-4-fluorophenyl]-5-(3-cyclopropoxyphenyl)-1H-pyraz.ol-3-yl]-methoxy)-2-methylpropanoic acid] | 1.3 nM | 86000 nM | 1.65 h | 66% | 1.68 h | 71% | 2.03 h | 73% |  |  |  |  |  |  |  |  |

Reference: patent US10214492B2, “Heterocyclic inhibitors of MCT4” (Vettore, LLC, priority 2016, dated 2019)
